Laboratory results: EP3125690B1, “HERBICIDAL MIXTURE OF CAROTENOID BIOSYNTHESIS INHIBITING COMPOUND AND AN AHAS/ALS INHIBITING COMPOUND AND USES THEREOF” (Adama Agan Ltd., priority 2014, dated 2015)

How the values were obtained:
Format in all cases: in vivo
Chenopodium album = assay: Herbicide efficacy trial in sunflower crop, Example 1 (0 to 100 scale); conditions: avg, n 6
Text: (§1) Four herbicide treatments were compared: • a) Imazamox 20 g/l + Aclonifen 300 g/l SC formulation (Application Rate of 2.0 l/ha) • b) Imazamox 40 g/l SC + Aclonifen 600 g/l SC tank-mix (Application Rate of 1.0 l/ha + 1.0 l/ha) • c) Imazamox 40 g/l SL formulation (commercially available as Pulsar) (Application Rate of 1.0 1/ha) • d) Aclonifen 600 g/l SC formulation (Application Rate of 1.0 l/ha)
(§2) The above treatments were applied to a variety of weeds. The results are based on a 0 to 100 scale where 0 is no effect and 100 is complete control. Table 2 compares the individual applications aclonifen and imazamox with the tank-mix of the two active ingredients as well as the ready-mix formulation of aclonifen and imazamox.
(§3) The trial detailed in Tables 1-4 were conducted on Sunflower crop in France, Hungary and Romania.

Hibiscus trionum = assay: as above; conditions: avg, n 2
Text: as §1, §2, §3

Calystegia sepium = assay: as above; conditions: avg, n 1
Text: as §1, §2, §3

Setaria pumila [1] = assay: as above; conditions: avg, n 1
Text: as §1, §2, §3

Abutilon theophrasti = assay: as above; conditions: avg, n 1
Text: as §1, §2, §3

Ambrosia artemisiifolia = assay: as above; conditions: avg, n 2
Text: as §1, §2, §3

Amaranthus retroflexus = assay: as above; conditions: avg, n 2
Text: as §1, §2, §3

Sonchus arvensis = assay: as above; conditions: avg, n 1
Text: as §1, §2, §3

Fallopia convolvulus = assay: as above; conditions: avg, n 1
Text: as §1, §2, §3

Echinochloa crus-galli = assay: as above; conditions: avg, n 3
Text: as §1, §2, §3

Digitaria sanguinalis = assay: as above; conditions: avg, n 1
Text: as §1, §2, §3

Conyza Canadensis = assay: as above; conditions: avg, n 1
Text: as §1, §2, §3

Mercurialis annua = assay: as above; conditions: avg, n 2
Text: as §1, §2, §3

Persicaria lapathifolia [2] = assay: as above; conditions: avg, n 1
Text: as §1, §2, §3

Persicaria lapathifolia [3] = assay: Herbicide efficacy trial with Colby calculation, Example 3; conditions: application rate 1000 (ml or gr); for % control observed 13 DAA: 13 days after application; for % control observed 38 DAA: 38 days after application; for % control observed 76 DAA: 76 days after application
Text: (§4) In the context of the present subject matter, the term "synergy" is as defined by Colby S. R. in an article entitled "Calculation of the synergistic and antagonistic responses of herbicide combinations" published in the journal Weeds, 1967, 15, p. 20-22, incorporated herein by reference in its entirety. The action expected for a given combination of three active ingredients can be calculated as follows: E = X + Y−(XY)/(100) [formula] in which E represents the expected percentage of herbicidal control for the combination of the three herbicides at defined doses (for example equal to x, y and z respectively), X is the percentage of herbicidal control observed by aclonifen at a defined dose (equal to x), Y is the percentage of herbicidal control observed by imazamox at a defined dose (equal to y). When the percentage of herbicidal control observed for the combination is greater than the expected percentage, there is a synergistic effect. When the percentage of control observed for the combination is equal to the expected percentage, there is an additive effect and wherein the percentage of herbicidal control observed for the combination is lower than the expected percentage, there is an antagonistic effect.
as §1, with “l/ha)” for “1/ha)”
as §2, with “5” for “2”

Setaria pumila [4] = assay: Herbicide efficacy trial with Colby calculation, Example 2; conditions: application rate 1000 (ml or gr); for % control observed 41 DAA: 41 days after application; for % control observed 62 DAA: 62 days after application; for % control observed 107 DAA: 107 days after application
Text: as §4
(§5) Three herbicide treatments were compared: • a) Imazamox 40 g/l SC + Aclonifen 600 g/l SC tank-mix (Application Rate of 1.0 l/ha + 1.0 l/ha) • b) Imazamox 40 g/l SL formulation (commercially available as Pulsar) (Application Rate of 1.0 l/ha) • c) Aclonifen 600 g/l SC formulation (Application Rate of 1.0 l/ha)
(§6) The above treatments were applied to a variety of weeds. The results are based on a 0 to 100 scale where 0 is no effect and 100 is complete control. Table 3-4 compares the individual applications of aclonifen and imazamox with the tank of the two active ingredients.
as §3

Solanum Nigrum = assay: as above; conditions: application rate 1000 (ml or gr)
Text: as §4, §5, §6, §3

Persicaria lapathifolia [5] = assay: as above; conditions: application rate 1000 (ml or gr)
Text: as §4, §5, §6, §3

## COCc1cnc(C2=NC(C)(C(C)C)C(=O)N2)c(C(=O)O)c1 (racemic) [Imazamox SL, 2-[(RS)-4-isopropyl-4-methyl-5-oxo-2-imidazolin-2-yl]-5-methoxymethylnicotinic acid]
Chenopodium album; 40 g ai/ha, 1,00 l/ha
  Efficacy (% Control): 91.0%
Hibiscus trionum; 40 g ai/ha, 1,00 l/ha
  Efficacy (% Control): 58.1%
Calystegia sepium; 40 g ai/ha, 1,00 l/ha
  Efficacy (% Control): 80.5%
Setaria pumila [1]; 40 g ai/ha, 1,00 l/ha
  Efficacy (% Control): 81.0%
Abutilon theophrasti; 40 g ai/ha, 1,00 l/ha
  Efficacy (% Control): 90.5%
Ambrosia artemisiifolia; 40 g ai/ha, 1,00 l/ha
  Efficacy (% Control): 88.4%
Amaranthus retroflexus; 40 g ai/ha, 1,00 l/ha
  Efficacy (% Control): 93.3%
Sonchus arvensis; 40 g ai/ha, 1,00 l/ha
  Efficacy (% Control): 84.6%
Fallopia convolvulus; 40 g ai/ha, 1,00 l/ha
  Efficacy (% Control): 92.8%
Echinochloa crus-galli; 40 g ai/ha, 1,00 l/ha
  Efficacy (% Control): 85.1%
Digitaria sanguinalis; 40 g ai/ha, 1,00 l/ha
  Efficacy (% Control): 75.0%
Conyza Canadensis; 40 g ai/ha, 1,00 l/ha
  Efficacy (% Control): 37.5%
Mercurialis annua; 40 g ai/ha, 1,00 l/ha
  Efficacy (% Control): 69.0%
Persicaria lapathifolia [2]; 40 g ai/ha, 1,00 l/ha
  Efficacy (% Control): 67.9%
Persicaria lapathifolia [3]; 40 g/ha
  % control observed 13 DAA: 79.47%
  % control observed 38 DAA: 58.11%
  % control observed 76 DAA: 55.50%
Setaria pumila [4]; 40 g/ha
  % control observed: 81%
  % control observed 41 DAA: 20.00%
  % control observed 62 DAA: 90.00%
  % control observed 107 DAA: 81.00%
Solanum Nigrum; 40 g/ha
  % control observed: 79.45%
Persicaria lapathifolia [5]; 40 g/ha
  % control observed: 67.90%

## Nc1c([N+](=O)[O-])ccc(Oc2ccccc2)c1Cl [Aclonifen SC, 2-Chlor-6-nitro-3-phenoxyanilin]
Chenopodium album; 600 g ai/ha, 1,00 l/ha
  Efficacy (% Control): 85.1%
Hibiscus trionum; 600 g ai/ha, 1,00 l/ha
  Efficacy (% Control): 81.3%
Calystegia sepium; 600 g ai/ha, 1,00 l/ha
  Efficacy (% Control): 66.8%
Setaria pumila [1]; 600 g ai/ha, 1,00 l/ha
  Efficacy (% Control): 20.0%
Abutilon theophrasti; 600 g ai/ha, 1,00 l/ha
  Efficacy (% Control): 50.0%
Ambrosia artemisiifolia; 600 g ai/ha, 1,00 l/ha
  Efficacy (% Control): 78.9%
Amaranthus retroflexus; 600 g ai/ha, 1,00 l/ha
  Efficacy (% Control): 72.0%
Sonchus arvensis; 600 g ai/ha, 1,00 l/ha
  Efficacy (% Control): 84.7%
Fallopia convolvulus; 600 g ai/ha, 1,00 l/ha
  Efficacy (% Control): 91.0%
Echinochloa crus-galli; 600 g ai/ha, 1,00 l/ha
  Efficacy (% Control): 78.1%
Digitaria sanguinalis; 600 g ai/ha, 1,00 l/ha
  Efficacy (% Control): 62.5%
Conyza Canadensis; 600 g ai/ha, 1,00 l/ha
  Efficacy (% Control): 25.0%
Mercurialis annua; 600 g ai/ha, 1,00 l/ha
  Efficacy (% Control): 74.7%
Persicaria lapathifolia [2]; 600 g ai/ha, 1,00 l/ha
  Efficacy (% Control): 38.3%
Persicaria lapathifolia [3]; 600 g/ha
  % control observed 13 DAA: 71.02%
  % control observed 38 DAA: 44.14%
  % control observed 76 DAA: 38.25%
Setaria pumila [4]; 600 g/ha
  % control observed: 20%
  % control observed 41 DAA: 11.00%
  % control observed 62 DAA: 20.00%
  % control observed 107 DAA: 20.00%
Solanum Nigrum; 600 g/ha
  % control observed: 33.33%
Persicaria lapathifolia [5]; 600 g/ha
  % control observed: 38.30%
